Results: patent US20030139391A1 (priority 2000, published 2003)

What was measured:
patients = test: Side effects and dropout in earlier studies with shorter titration; format: in vivo, human; conditions: for Abdominal Pain: % / Abdominal Pain: number / Diarrhea: % / Diarrhea: number / Dyspepsia: % / Dyspepsia: number / Gastro-intestinal System Disorders, Adverse events: % / Gastro-intestinal System Disorders, Adverse events: number / Nausea: % / Nausea: number / Vomiting: % / Vomiting: number: shorter titration
From the text: In contrast with earlier studies with a shorter titration of the drug the incidence of side effects, particularly gastro-intestinal system disorders, were […]. A example of this is shown below in Table 11.

[1] = in humans; cited from earlier work

**Q.** Which “Abdominal Pain: %” value (patients; 18 mg) does the source give for `COc1ccc2c3c1O[C@H]1C[C@@H](O)C=C[C@@]31CCN(C)C2` [GAL, galantamine] here?
**A.** Its value is 2.3%.

**Q.** What about the “Abdominal Pain: number” value (patients; 18 mg) of the same molecule?
**A.** Its value is 2.

**Q.** And the “Diarrhea: %” value (patients; 18 mg)?
**A.** Its value is 2.3%.

**Q.** What about the “Diarrhea: number” value (patients; 18 mg) of the same molecule?
**A.** Its value is 2.

**Q.** What about the “Dyspepsia: %” value (patients; 18 mg) of the same molecule?
**A.** Its value is 5.7%.

**Q.** What about the “Dyspepsia: number” value (patients; 18 mg) of the same molecule?
**A.** Its value is 5.

**Q.** And the “Gastro-intestinal System Disorders, Adverse events: %” value (patients; 18 mg)?
**A.** Its value is 31.8%.

**Q.** And the “Gastro-intestinal System Disorders, Adverse events: number” value (patients; 18 mg)?
**A.** The value was 28.

**Q.** What about the “Nausea: %” value (patients; 18 mg) of the same molecule?
**A.** Its value is 17.0%.

**Q.** And the “Nausea: number” value (patients; 18 mg)?
**A.** The value was 15.

**Q.** What about the “Vomiting: %” value (patients; 18 mg) of the same molecule?
**A.** The value was 17.0%.

**Q.** What about the “Vomiting: number” value (patients; 18 mg) of the same molecule?
**A.** Its value is 15.

**Q.** What about the “Abdominal Pain: %” value (patients; 24 mg) of the same molecule?
**A.** Its value is 7.4%.

**Q.** What about the “Abdominal Pain: number” value (patients; 24 mg) of the same molecule?
**A.** Its value is 36.

**Q.** And the “Diarrhea: %” value (patients; 24 mg)?
**A.** Its value is 9.6%.

**Q.** What about the “Diarrhea: number” value (patients; 24 mg) of the same molecule?
**A.** Its value is 47.

**Q.** And the “Dyspepsia: %” value (patients; 24 mg)?
**A.** Its value is 4.3%.

**Q.** And the “Dyspepsia: number” value (patients; 24 mg)?
**A.** Its value is 21.

**Q.** And the “Gastro-intestinal System Disorders, Adverse events: %” value (patients; 24 mg)?
**A.** Its value is 49.0%.

**Q.** What about the “Gastro-intestinal System Disorders, Adverse events: number” value (patients; 24 mg) of the same molecule?
**A.** The value was 239.

**Q.** And the “Nausea: %” value (patients; 24 mg)?
**A.** Its value is 35.2%.

**Q.** And the “Nausea: number” value (patients; 24 mg)?
**A.** The value was 172.

**Q.** And the “Vomiting: %” value (patients; 24 mg)?
**A.** Its value is 19.1%.

**Q.** And the “Vomiting: number” value (patients; 24 mg)?
**A.** Its value is 93.

**Q.** And the “Abdominal Pain: %” value (patients; 32 mg)?
**A.** Its value is 8.4%.

**Q.** What about the “Abdominal Pain: number” value (patients; 32 mg) of the same molecule?
**A.** The value was 59.

**Q.** And the “Diarrhea: %” value (patients; 32 mg)?
**A.** Its value is 12.9%.

**Q.** What about the “Diarrhea: number” value (patients; 32 mg) of the same molecule?
**A.** The value was 91.

**Q.** What about the “Dyspepsia: %” value (patients; 32 mg) of the same molecule?
**A.** The value was 4.5%.

**Q.** And the “Dyspepsia: number” value (patients; 32 mg)?
**A.** Its value is 32.

**Q.** What about the “Gastro-intestinal System Disorders, Adverse events: %” value (patients; 32 mg) of the same molecule?
**A.** The value was 55.8%.

**Q.** And the “Gastro-intestinal System Disorders, Adverse events: number” value (patients; 32 mg)?
**A.** The value was 393.

**Q.** What about the “Nausea: %” value (patients; 32 mg) of the same molecule?
**A.** Its value is 37.6%.

**Q.** And the “Nausea: number” value (patients; 32 mg)?
**A.** Its value is 265.

**Q.** And the “Vomiting: %” value (patients; 32 mg)?
**A.** Its value is 18.6%.

**Q.** And the “Vomiting: number” value (patients; 32 mg)?
**A.** The value was 131.

**Q.** What about the “dropout rate due to cholinergic side effects” value (patients; 36 mg daily in three doses, two week titration) of the same molecule?
**A.** The value was 50%.

**Q.** And the “Abdominal Pain: %” value (patients; 36 mg)?
**A.** The value was 1.9%.

**Q.** What about the “Abdominal Pain: number” value (patients; 36 mg) of the same molecule?
**A.** The value was 1.

**Q.** And the “Diarrhea: %” value (patients; 36 mg)?
**A.** Its value is 3.7%.

**Q.** What about the “Diarrhea: number” value (patients; 36 mg) of the same molecule?
**A.** Its value is 2.

**Q.** What about the “Dyspepsia: %” value (patients; 36 mg) of the same molecule?
**A.** Its value is 0 (0%).

**Q.** What about the “Dyspepsia: number” value (patients; 36 mg) of the same molecule?
**A.** The value was 0 (0%).

**Q.** What about the “Gastro-intestinal System Disorders, Adverse events: %” value (patients; 36 mg) of the same molecule?
**A.** The value was 50.0%.

**Q.** What about the “Gastro-intestinal System Disorders, Adverse events: number” value (patients; 36 mg) of the same molecule?
**A.** The value was 27.

**Q.** What about the “Nausea: %” value (patients; 36 mg) of the same molecule?
**A.** Its value is 37.0%.

**Q.** And the “Nausea: number” value (patients; 36 mg)?
**A.** The value was 20.

**Q.** And the “Vomiting: %” value (patients; 36 mg)?
**A.** The value was 16.7%.

**Q.** And the “Vomiting: number” value (patients; 36 mg)?
**A.** Its value is 9.

**Q.** And the “Abdominal Pain: %” value (patients; flexable dose)?
**A.** Its value is 1.9%.

**Q.** And the “Abdominal Pain: number” value (patients; flexable dose)?
**A.** The value was 18.

**Q.** What about the “Diarrhea: %” value (patients; flexable dose) of the same molecule?
**A.** The value was 14.6%.

**Q.** And the “Diarrhea: number” value (patients; flexable dose)?
**A.** Its value is 38.

**Q.** What about the “Dyspepsia: %” value (patients; flexable dose) of the same molecule?
**A.** Its value is 3.4%.

**Q.** And the “Dyspepsia: number” value (patients; flexable dose)?
**A.** Its value is 9.

**Q.** What about the “Gastro-intestinal System Disorders, Adverse events: %” value (patients; flexable dose) of the same molecule?
**A.** The value was 51.0%.

**Q.** And the “Gastro-intestinal System Disorders, Adverse events: number” value (patients; flexable dose)?
**A.** Its value is 133.

**Q.** What about the “Nausea: %” value (patients; flexable dose) of the same molecule?
**A.** Its value is 32.2%.

**Q.** And the “Nausea: number” value (patients; flexable dose)?
**A.** The value was 84.

**Q.** What about the “Vomiting: %” value (patients; flexable dose) of the same molecule?
**A.** The value was 14.6%.

**Q.** And the “Vomiting: number” value (patients; flexable dose)?
**A.** Its value is 38.

**Q.** And the “passing the blood-brain barrier” value [1]?
**A.** Its value is “capable of passing the blood-brain barrier”.
